Read-outs that look alike come from different tables or passages of the source.
What was measured:
[1] = system: human cytomegalovirus (HCMV) (Davis); test: microbe, parasite or virus in culture; format: cell-based; conditions: read-out: EC50 HCMV (Davis)
[2] = system: human cytomegalovirus (HCMV) (AD-169); test: microbe, parasite or virus in culture; format: cell-based; conditions: read-out: EC50 HCMV (AD-169)
in vitro = conditions: human, Cytotoxicity CC50
[3] = Weight and condition of mice during treatment in the SCID-Hu model; conditions: for change in weight during the treatment phase: first study, Days 0-8, 5 26 mg/kg sc, cidofovir 10 mg/kg ip
[4] = system: herpes simplex virus 1 (HSV-1) (KOS); test: microbe, parasite or virus in culture; format: cell-based; conditions: read-out: EC50 HSV-1 (KOS)
HSV-2 (G) = test: microbe, parasite or virus in culture; format: cell-based, herpes simplex virus 2; conditions: read-out: EC50 HSV-2 (G)
HSV-1 (KOS ACV) TK− = test: microbe, parasite or virus in culture; format: cell-based, herpes simplex virus 1
[5] = system: VZV-BAC-Luc TK− strain (ACV^R); test: microbe, parasite or virus in culture; format: cell-based, varicella zoster virus; conditions: read-out: approximate EC50, ACV^R VZV
[6] = system: VZV-BAC-Luc strain (wild type); test: microbe, parasite or virus in culture; format: cell-based, varicella zoster virus; conditions: read-out: approximate EC50, wild type VZV
Vaccinia Virus = test: microbe, parasite or virus in culture; format: cell-based; conditions: read-out: EC50 Vaccinia Virus
[7] = system: VZV-BAC-Luc in human fetal skin; test: Human skin organ culture model of VZV replication; format: cell-based, varicella zoster virus; conditions: for VZV yield in skin organ culture compared to vehicle: Day 11, cidofovir 5 μM, 5 at 1 and 5 μM (p<0.0001 vs vehicle)
VZV-BAC-Luc = test: SCID-Hu mouse model of VZV replication (human fetal skin xenografts); format: in vivo, CB.17 scid/beige male mice; conditions: for VZV spread / virus yield (Total Flux) vs Vehicle: once daily Days 0-8, 5 26 mg/kg subcutaneous, cidofovir 10 mg/kg intraperitoneal, yield compared Day 9, p=0.0051
Procedure: SCID-Hu mouse model of VZV replication. CB.17 scid/beige male mice (Charles River) were implanted subcutaneously with human fetal skin (the same type of specimens used for the skin organ culture assay). After 3-4 weeks engraftment, the skin implants were inoculated with VZV-BAC-Luc or VZV-ORF57-Luc. The mice were divided into groups (N=10-13) for treatment or controls. The positive control antiviral drug was cidofovir, 10 mg/kg/day given by intraperitoneal injection. The negative control was the vehicle Cremophor-DMSO-saline (1:1:8) given by subcutaneous injection. The treatment groups were 5 in Cremophor-DMSO-saline, 26, 13, or 6.5 mg/kg/day, given by subcutaneous injection. Treatment began 2 hours or 3 days after the inoculation surgery and continued daily or alternating days for up to 9 days. The mice were scanned in the IVIS-200 instrument daily from Day 1-10. The mice were weighed before the start of the study and daily during the treatment phase.
Statistical analysis: The results were analyzed for statistical significance by Student's t test or by ANOVA and Dunnett's post hoc test of multiple comparisons (GraphPad Prism).
CB.17 scid/beige male mice were implanted subcutaneously with human fetal skin (the same type of specimens used for the skin organ culture assay). After 3-5 weeks engraftment period, the skin implants were inoculated with VZV-BAC-Luc. The mice were divided into 3 groups of 10-13 mice: vehicle (Cremophor-DMSO-saline 1:1:8), cidofovir 10 mg/kg in saline, and 5 26 mg/kg in Cremophor-DMSO-saline. 5 at 26 mg/kg is the molar equivalent dose to cidofovir 10 mg/kg. Cidofovir was given by the intraperitoneal route, once daily, from Days 0-8. Vehicle and 5 were given by the subcutaneous route, once daily, from Days 0-8. The mice were scanned in the IVIS-200 instrument daily from Day 1-9 and the Total Flux values indicated VZV-infected cells in the skin xenografts (FIG. 3). […] VZV grew normally in the Vehicle group.
In addition, a dose-ranging and delayed treatment assay was included to determine the lowest effective dose (FIGS. 5A and 5B). As before, 5 26 mg/kg was given once daily, by the subcutaneous route, from Days 0-6. This group was compared to Vehicle (Cremophor-DMSO-saline). In the dose ranging assay, 5 high dose (26 mg/kg), medium dose (13 mg/kg) or low dose (6.5 mg/kg) was given once daily, by the subcutaneous route, from Days 3-9. The treatment phase was delayed to Day 3 because this is more clinically relevant.

HBV = test: Anti-HBV activity, Huh7 cells transfected with pHBV1.1×, intra-capsid viral DNA by real-time PCR; format: cell-based, Hepatitis B virus; conditions: 7 days, read-out: IC50 (HBV replication) (converted)
Equine Herpes V 1 = format: cell-based, Equine herpes virus
Adeno virus = test: Virus infection assay, Adeno virus, permissive cells; format: cell-based
Procedure: (§1) 2. Virus Infection (Protocols for: Adeno Virus, Cytomegalo Virus, Poxvirus, Myxo Virus, Equine Herpes Virus)
(§2) Cognate permissive cell lines were used for each virus infection assay.
(§3) Cells were grown in DMEM without phenol red (Sigma-Aldrich) 10% SVF, Pen-strep, 1× sodium pyruvate, 1× Glutamax.
(§4) Virus infection was carried out on permissive cells seeded in either in 96 wells plate or in 6 well plates, in duplicate at one or two MOI (multiplicity of infection) and 7 concentrations of LA6. • Day 0: cells seeded at 10 k per well in Corning Glass Bottom 96 well plates in 200 μl of DMEM without phenol red or 200 k in 6 well plates. • Day 1: cells were treated with LA6 (from 1 to 0.0037 μM by […] dilutions) in duplicate and were infected at different MOI according to the tested virus • Day 2 to day 7: cells were fixed with Formalin 10 min at room temperature. Cells were washed with 200 μL PBS and 100 μL PBS/Hoechst® 33342 (1/1000) per well. 96 well plates were kept at 4° C. in the dark until data acquisition Image acquisition and analysis for high content quantification was performed on a Thermo Cellomics Arrayscan™ VTI microscope using a modified compartmental analysis algorithm for fluorescent virus. For unmodified virus, ECP progression or plaque count was determined visually by double blind analysis.

[8] = system: HSV-1, HSV-2, HSV-1 (TK−), VV, FHV; format: cell-based
Equine Herpes V 4 = test: Virus infection assay, Equine Herpes V 4, permissive cells; format: cell-based
Procedure: as §1, §2, §3, §4

Feline Herpes Virus = test: organism not typed; format: cell-based; conditions: read-out: EC50 Feline Herpes Virus
Vaccinia Virus TK− = format: cell-based
[9] = system: varicella-zoster virus (VZV) TK+ (OKA); test: microbe, parasite or virus in culture; format: cell-based; conditions: read-out: EC50 VZV TK+ (OKA)
HEL cells = conditions: read-out: Cytotoxicity CC50; concentration reducing cell growth by 50%; HCMV/VZV table
Myxomatosis Virus (MYXV) = format: cell-based
[10] = Human alphaherpesvirus 3, ARPE-19, 72 h
[11] = ARPE-19 cells, 3 days, bioluminescence, estimated by interpolation

**Q.** For `Nc1ccn(C[C@@H](CO)OCP(=O)(O)O)c(=O)n1` [Cidofovir, reference compound], which EC50 ([1]; Human betaherpesvirus 5, HEL) is on record?
**A.** 1000 nM

**Q.** And the EC50 ([2]; Human betaherpesvirus 5, AD169, HEL)?
**A.** 1200 nM

**Q.** What about the CC50 (in vitro) of the same compound?
**A.** > 100000 nM

**Q.** What about the “change in weight during the treatment phase” value [3] of the same compound?
**A.** moderate weight loss

**Q.** What about the EC50 ([4]; Human alphaherpesvirus 1, HEL) of the same compound?
**A.** 4500 nM

**Q.** What about the “Cytotoxicity MCC” value (HEL cell cultures; human) of the same compound?
**A.** >100 µM

**Q.** What about the EC50 (HSV-2 (G); Human alphaherpesvirus 2, HEL) of the same compound?
**A.** 1000 nM

**Q.** What about the EC50 (HSV-1 (KOS ACV) TK−; Human alphaherpesvirus 1, read-out: EC50 HSV-1 (KOS ACV) TK−) of the same compound?
**A.** 2800 nM

**Q.** What about the EC50 [5, 10] of the same compound?
**A.** ~2500 nM

**Q.** What about the EC50 [6, 10] of the same compound?
**A.** ~2500 nM

**Q.** What about the EC50 (Vaccinia Virus; Orthopoxvirus vaccinia, HEL) of the same compound?
**A.** 112000 nM

**Q.** And the “VZV yield in skin organ culture compared to vehicle” value [7]?
**A.** effective

**Q.** And the “VZV spread / virus yield (Total Flux) vs Vehicle” value (VZV-BAC-Luc)?
**A.** prevented VZV spread

**Q.** For “[(E)-2-[(2,6-diaminopyrimid in-4-yl)oxymethyl]-4-[3-hexadecoxypropoxy (isopropoxycarbonyloxymethoxy)phosphoryl]but-2′-enyl]acetate [Compound 13]”, which IC50 (HBV) is on record?
**A.** 1600 nM

**Q.** Which EC50 [1] does the source give for “[(Z)-2-[(2,6-diaminopyrimidin-4-yl)oxymethyl]-4-[3-hexadecoxypropoxy (isopropoxycarbonyloxymethoxy)phosphoryl]but-2′-enyl]acetate [Compound (5)]” here?
**A.** 700 nM

**Q.** What about the EC50 (Equine Herpes V 1) of the same compound?
**A.** < 125 nM

**Q.** And the EC50 (Adeno virus)?
**A.** < 37 nM

**Q.** And the EC50 (Adeno virus; text statement)?
**A.** < 37 nM

**Q.** And the “activity level against HSV-1, HSV-2, HSV-1 (TK−), VV, FHV” value [8]?
**A.** micromolar and sub-micromolar activities

**Q.** What about the EC50 ([8]; read-out: EC50 against both tested viruses) of the same compound?
**A.** < 350 nM

**Q.** And the EC50 [2]?
**A.** 1790 nM

**Q.** And the EC50 (Equine Herpes V 4)?
**A.** < 125 nM

**Q.** What about the “change in weight during the treatment phase” value [3] of the same compound?
**A.** did not cause weight loss

**Q.** What about the “overt toxicity (weight and condition of the mice)” value ([3]; repeat and dose-ranging study, 6.5-26 mg/kg sc) of the same compound?
**A.** did not cause overt toxicity

**Q.** What about the EC50 [4] of the same compound?
**A.** 43 ± 37 nM

**Q.** What about the EC50 (Feline Herpes Virus) of the same compound?
**A.** 350 nM

**Q.** What about the “Cytotoxicity MCC” value (HEL cell cultures) of the same compound?
**A.** 60 µM

**Q.** And the EC50 (HSV-2 (G))?
**A.** 15 nM

**Q.** And the EC50 (Vaccinia Virus TK−; read-out: EC50 Vaccinia Virus TK−)?
**A.** < 30 nM

**Q.** And the EC50 (Vaccinia Virus TK−; read-out: EC50 vaccicnia virus TK-)?
**A.** < 30 nM

**Q.** And the EC50 [9]?
**A.** 3.5 nM

**Q.** And the IC50 (HBV)?
**A.** 400 nM

**Q.** What about the EC50 (HSV-1 (KOS ACV) TK−; read-out: EC50 HSV-1 (KOS ACV) TK−) of the same compound?
**A.** 8 ± 2 nM

**Q.** What about the EC50 [5, 11] of the same compound?
**A.** ~10 nM

**Q.** And the EC50 [6, 11]?
**A.** ~10 nM

**Q.** What about the EC50 (Vaccinia Virus) of the same compound?
**A.** 115 ± 110 nM

**Q.** What about the CC50 (HEL cells) of the same compound?
**A.** 660 nM

**Q.** And the “VZV yield in skin organ culture compared to vehicle” value [7]?
**A.** effective

**Q.** And the “concentration preventing VZV spread in skin” value ([7]; skin organ culture)?
**A.** ≥ 1 µM

**Q.** And the “antiviral effect, delayed treatment, low dose” value (VZV-BAC-Luc; 6.5 mg/kg once daily subcutaneous Days 3-9, yield Day 10 p=0.029)?
**A.** equally effective

**Q.** And the “antiviral effect, delayed treatment, medium dose” value (VZV-BAC-Luc; 13 mg/kg once daily subcutaneous Days 3-9, yield Day 10 p=0.029)?
**A.** equally effective

**Q.** What about the “Virus yield on Day 7 vs Vehicle” value (VZV-BAC-Luc; 26 mg/kg once daily subcutaneous Days 0-6, p=0.008) of the same compound?
**A.** significantly less than the Vehicle group

**Q.** And the “antiviral effect, delayed treatment, high dose” value (VZV-BAC-Luc; 26 mg/kg once daily subcutaneous Days 3-9, yield Day 10 p=0.029)?
**A.** also effective

**Q.** And the “VZV spread / virus yield (Total Flux) vs Vehicle” value (VZV-BAC-Luc)?
**A.** prevented VZV spread

**Q.** And the “low dose effectively preventing VZV spread” value (VZV-BAC-Luc; once daily subcutaneous Days 3-9)?
**A.** 6.5 mg/kg

**Q.** And the EC50 (Myxomatosis Virus (MYXV))?
**A.** 51 nM

Source: patent US11603380B2 (Centre national de la recherche scientifique, priority 2018, dated 2023)
